Source: patent publication US20260355329A1, “PRODRUG LINKER COMPOSITIONS AND METHODS OF USE” (priority 2023, published 2026)
In brackets after ≈: the same amount, converted by molar mass. Entries after “also recorded” stand apart in the source; their conditions may differ. Peptide text beside a SMILES is read from it. * marks the point of attachment. ACC = NC(=O)Cc1cc(=O)oc2cc(N*)ccc12

Assays:
[1] = test system: A. baumannii periplasmic extract; assay: Release of ACC from Ac-Linker-ACC conjugates in A. baumannii periplasmic extract; format: biochemical; details: role: substrate, 8 h
Experimental: (§1) With the hit candidate in-hand, scarless cleavage was assessed with the turn-on fluorescent probe 7-amino-4-carbamoylmethylcoumarin (ACC), which only fluoresces when the ACC fluorophore is cleaved without an amino acid scar. To discover a scarless linker for LEHELGN (SEQ ID NO: 7), the following ACC conjugates (FIG. 9) were synthesized and cleavage rates were compared in 50% mouse serum and A. baumannii periplasmic extracts (FIGS. 10 and 11): Ac-LEHELGN-ACC (SEQ ID NO: 8), Ac-LEHELG-ACC (SEQ ID NO: 9), Ac-LEHEL-ACC (SEQ ID NO: 10), Ac-LEHE-ACC (SEQ ID NO: 11), Ac-LEH-ACC (SEQ ID NO: 12), Ac-LE-ACC, and Ac-L-ACC (note: Ac=acetyl).
To determine how each amino acid contributed to the selectivity of linker LEHELG (SEQ ID NO: 1), an ala scan was conducted. Each position of the LEHELG (SEQ ID NO: 1) linker was substituted with a single alanine, the simplest amino acid containing a stereocenter, to create six variants. The P1 position is the amino acid directly adjacent to the cleavage site, which is conjugated to the ACC turn-on fluorophore. The cleavage rates of ala-substituted variants (P1-P6) were determined in mouse serum and in the periplasmic extracts from six strains of A. baumannii (FIG. 12). […]
Periplasmic extracts and mouse serum were not diluted prior to use in fluorescence assays and were allowed to undergo only one freeze-thaw cycle prior to use. […]

[2] = Release of ACC from Ac-Linker-ACC conjugates in mouse serum (serum stability); format: in vitro ADME; details: role: substrate; 50% mouse serum, 8 h
Experimental: as §1
To determine how each amino acid contributed to the selectivity of linker LEHELG (SEQ ID NO: 1), an ala scan was conducted. […] The cleavage rates of ala-substituted variants (P1-P6) were determined in mouse serum and in the periplasmic extracts from six strains of A. baumannii (FIG. 12).
Periplasmic extracts and mouse serum were not diluted prior to use in fluorescence assays and were allowed to undergo only one freeze-thaw cycle prior to use. […] The plate was sealed with a transparent polyolefin silicone film (Thermofisher™ Nuc™ Sealing Tape, 12-565-513) and placed in a plate reader at 37 °C with shaking at 225 rpm for 8 hours. […]

HL60 cells = assay: Cell viability assay (MTT) in HL60 cells; format: cell-based; details: Homo sapiens, HL-60, 24 h, 0.07-10 μM, FIG. 14
Experimental: Cell Culture: HL-60 cells were cultured at 37 °C in a 5% CO2 atmosphere. The cells were grown in Iscove's Modified Dulbecco's Medium, supplemented with 20% fetal bovine serum (FBS) and 0.1% penicillin-streptomycin. Media was replaced every other day until cells reached the desired confluency.
Viability Assay: HL-60 cells (4×10^3) were seeded in a 96-well plate in cell culture media (100 μL) for 24 hours at the atmosphere stated above (5% CO2). After incubation, the cells were treated with 10 μL of vehicle or drug (0.07-10 μM, n=6) for 24 hours at 37 °C. Cell viability was assessed using MTT. MTT media (30 μL, 5 mg/mL) was added to each well for 2 hours and plate was centrifuged at 500×g for 5 minutes after, followed by media aspiration. The formazan crystals left were solubilized in DMSO and absorbance (540 nm) was measured using a microplate reader (SpectraMax M5). Data obtained was normalized to the vehicle to generate final values. The graph plotted in FIG. 14 is depicted as the mean±SEM vs. compound concentration.

S. enterica 14028s = assay: MIC, broth microdilution; format: cell-based; details: Salmonella enterica, MH-II broth, 16 h, 37 °C, dipyridyl 200 μM for siderophore conjugates
Description: (§2) For full conjugate synthesis, the HMM siderophore (see FIG. 3) was chosen due to its ability to actively transport antibiotics into diverse bacteria. Solithromycin was chosen as a warhead to determine the quality of the cleavable linker in bacteria and to provide insight into the ability of the conjugate to actively transport through membranes. Solithromycin is a broad-spectrum antibiotic (G^+ and […]), and conjugates with this warhead require cleavage for activity, except in cases where the conjugate is actively transported to the cytoplasm, where the intact conjugate engages the target ribosome. When the minimum inhibitory concentration (MIC, minimum amount of drug to inhibit growth) of solithromycin equals the MIC of its cleavable L-linker conjugate, it indicates quantitative drug release, assuming the non-cleavable D-linker conjugate is not active (Table 1). D-linkers are not cleaved by most proteases.
(§3) Broth and Agar Preparation: Mueller-Hinton II (MH-II, cation-adjusted) broth was prepared from solid MH-II (22 g) and MilliQ H2O (1 L), which was autoclaved in a presterilized 1-L glass bottle. The autoclaved MH-II media contained dipyridyl (DP, 200 μM) for MIC assays involving siderophore conjugates. MH-II agar plates were prepared from autoclaved MH-II (22 g), Bacto agar (17 g), and MilliQ water (1 L). The bacterial strains were obtained from glycerol stocks.
(§4) Bacteria Culture Preparation: Bacteria were streaked on MH-II agar plates from glycerol stocks. The streaked plates were placed in an incubator at 37 °C without shaking for 18-hours. A sterilized pipet tip was gently touched on the surface of a single colony and added to autoclaved MH-II broth (5 mL) in a sterilized 14-mL culture tube. The cultures were incubated for 18 hours at 37 °C with shaking at 215 rpm. The cultures were diluted 200-fold into autoclaved MH-II broth (4 mL) and incubated at 37 °C with shaking at 215 rpm for 3-5 hours, or until an OD 600 of 0.5 was achieved. An aliquot of the culture (1 mL) was transferred to a sterilized culture tube and diluted with filter-sterilized PBS (~7 mL) until an OD600 of 0.13-0.15 was achieved. An aliquot ([…]) of the cultures was then transferred into MH-II media (15-mL) to achieve a concentration of 1×10^5 cells/mL. The diluted cultures (90 μL/well) were then added to substrate (10 μL at the following concentrations: 640 μg/mL, 320 μg/mL, 160 μg/mL, 80 μg/mL, 40 μg/mL, 20 μg/mL, 10 μg/mL, and 0 μg/mL in sterilized 96-well plates to achieve a final substrate concentration of 64 μg/mL, 32 μg/mL, 16 μg/mL, 8 μg/mL, 4 μg/mL, 2 μg/mL, 1 μg/mL, and 0 μg/mL. The 96-well plates were then sealed with sterilized gas-permeable covers. The plates were incubated at 37 °C with shaking at 215 rpm for 16 hours. Each well condition was prepared in triplicate, and each MIC assay was repeated on a different day. The turbidity of each well was examined visually and the MIC was counted as the lowest concentration that lacked turbidity.

A. baumannii 5075 = assay: MIC, broth microdilution; format: cell-based; details: Acinetobacter baumannii, MH-II broth, 16 h, 37 °C, dipyridyl 200 μM for siderophore conjugates
Description: as §2, §3, §4

K. pneumoniae MGH 78578 = assay: MIC, broth microdilution; format: cell-based; details: Klebsiella pneumoniae, MGH78578, MH-II broth, 16 h, 37 °C, dipyridyl 200 μM for siderophore conjugates
Description: as §2, §3, §4

E. aerogenes ATCC 13048 = assay: MIC, broth microdilution; format: cell-based; details: Klebsiella aerogenes, ATCC13048, MH-II broth, 16 h, 37 °C, dipyridyl 200 μM for siderophore conjugates
Description: as §2, §3, §4

E. coli K12 MG1655 = assay: MIC, broth microdilution; format: cell-based; details: Escherichia coli, MH-II broth, 16 h, 37 °C, dipyridyl 200 μM for siderophore conjugates
Description: as §2, §3, §4

E. coli DCO = assay: MIC, broth microdilution; format: cell-based; details: Escherichia coli, MH-II broth, 16 h, 37 °C, dipyridyl 200 μM for siderophore conjugates
Description: as §2, §3, §4

A baumannii WC487 = assay: MIC, broth microdilution; format: cell-based; details: Acinetobacter baumannii, MH-II broth, 16 h, 37 °C, dipyridyl 200 μM for siderophore conjugates
Description: as §2, §3, §4

K. pneumoniae KPPR1 = assay: MIC, broth microdilution; format: cell-based; details: Klebsiella pneumoniae, MH-II broth, 16 h, 37 °C, dipyridyl 200 μM for siderophore conjugates
Description: as §2, §3, §4

S. typhi ATCC 700931 = assay: MIC, broth microdilution; format: cell-based; details: Salmonella enterica, MH-II broth, 16 h, 37 °C, dipyridyl 200 μM for siderophore conjugates
Description: as §2, §3, §4

CC(=O)N[C@@H](CC(C)C)C(=O)N[C@@H](CCC(=O)O)C(=O)N[C@@H](C)C(=O)N[C@@H](CCC(=O)O)C(=O)N[C@@H](CC(C)C)C(=O)NCC(=O)Nc1ccc2c(CC(N)=O)cc(=O)oc2c1 [Ac-LEAELG-ACC, Ac-LEAELG(SEQ ID NO: 3)-ACC] (Ac-LEAELG-{ACC})
cleavage rate / release of ACC in periplasmic extract (in words) [1]: dramatically enhanced the cleavage rates in periplasmic extracts
stability in serum / release of ACC in serum (in words) [2]: did not show a significant loss of serum stability relative to the parent peptide

CC(=O)N[C@@H](CC(C)C)C(=O)N[C@@H](CCC(=O)O)C(=O)N[C@@H](Cc1c[nH]cn1)C(=O)N[C@@H](CCC(=O)O)C(=O)N[C@@H](CC(C)C)C(=O)NCC(=O)Nc1ccc2c(CC(N)=O)cc(=O)oc2c1 [Ac-LEHELG-ACC, Ac-LEHELG(SEQ ID NO: 63)-ACC] (Ac-LEHELG-{ACC})
cleavage rate / release of ACC in periplasmic extract (in words) [1]: cleaving rapidly
stability in serum / release of ACC in serum (in words) [2]: Minimal release of ACC; also recorded: highest stability in mouse serum compared to all ala-substituted variants

CO[C@@]12[C@H](COC(N)=O)C3=C(C(=O)C(C)=C(N)C3=O)N1C[C@@H]1N[C@@H]12 [mitomycin C, reference compound]
EC50 (HL60 cells): 1 µM

CC[C@H]1OC(=O)[C@@](C)(F)C(=O)[C@H](C)[C@@H](O[C@@H]2O[C@H](C)C[C@H](N(C)C)[C@H]2O)[C@](C)(OC)C[C@@H](C)C(=O)[C@H](C)[C@H]2N(CCCCn3cc(-c4cccc(N)c4)nn3)C(=O)O[C@]12C [solithromycin]
MIC (S. enterica 14028s): 8 µM (≈ 6.76 µg/mL)
MIC (A. baumannii 5075): 8 µM (≈ 6.76 µg/mL)
MIC (K. pneumoniae MGH 78578): 4 µM (≈ 3.38 µg/mL)
MIC (E. aerogenes ATCC 13048): 8 µM (≈ 6.76 µg/mL)
MIC (E. coli K12 MG1655): < 1 µM
MIC (E. coli DCO): < 1 µM
MIC (A baumannii WC487): 4 µM (≈ 3.38 µg/mL)
MIC (K. pneumoniae KPPR1): 4 µM (≈ 3.38 µg/mL)
MIC (S. typhi ATCC 700931): 8 µM (≈ 6.76 µg/mL)
